Several values for one entry are separate records, joined by “and”; a condition that tells them apart may be missing. Equal entries are not always repeated. Where two headings read alike, the source gives them in different places.
Assays:
[1] = Pharmacokinetic evaluation in C57 mice (i.g./i.v.); type: in vivo; settings: for Vd / AUC(0-t) / half-life / Cmax / bioavailability / CL/F: both sexes, mouse, plasma; for Vd: read-out: Apparent distribution volume Vss; for AUC(0-t): read-out: Area under curve AUC0-t; for half-life: read-out: Half-life T½ (converted); for Cmax: read-out: Plasma concentration Cmax; for bioavailability: oral, i.g. 2.0 mg/kg vs i.v. 1.0 mg/kg, read-out: Bioavailability F; for CL/F: read-out: Clearance rate CL/F; for Clearance rate CL/F: i.v.
Procedure: C57 mice were used as test animals. After intragastric (i.g.)/intravenous (i.v.) administration of the compounds of the present disclosure to C57 mice, the plasma concentrations of the compounds at different time points were determined by the LC/MS/MS method. The pharmacokinetic behaviors of the compounds of the present disclosure in C57 mice were studied, and their pharmacokinetic profiles were evaluated.
Compound 16 and compound 32.
Thirty-six C57 mice, with an equal number of males and females, provided by Vital River Laboratory Animal Technology Co., Ltd., with the production licenses SCXK (Zhejiang) 2019-0001 and SCXK (Beijing) 2019-0006. The mice were evenly divided into 4 groups of 9, with 3 mice per time point per group, and dosed by intragastric and intravenous administration.
Certain amounts of the test compounds were weighed out, and 5% DMSO+5% tween 80+90% normal saline was added to prepare 0.1 mg/mL colorless clear solutions (for the intragastric administration groups) and 0.1 mg/mL colorless clear solutions (for the intravenous administration groups).
The intragastric administration groups: The administration dose was 2.0 mg/kg, and the administration volume was 20 mL/kg.
The intravenous administration groups: The administration dose was 1.0 mg/kg, and the administration volume was 10 mL/kg.
The intragastric administration groups: 0.1-mL blood samples were collected from the orbit before administration and 0.25, 0.5, 1.0, 2.0, 4.0, 6.0, 8.0, 11.0, and 24.0 h after administration, placed into EDTA-K2 anticoagulation test tubes, and centrifuged at 10,000 rpm for 1 min (4° C.), and the plasma was separated within 1 h and stored at −80° C. before analysis. The procedures from the blood collection to the centrifugation were performed under ice-bath conditions.
The intravenous administration groups: Blood samples were collected before administration and 5 min and 0.25, 0.5, 1.0, 2.0, 4.0, 8.0, 11.0, and 24 h after administration and were treated in the same way as those collected from the intragastric administration groups.
Determination of the plasma concentrations of the test compounds in C57 mice after the compounds were administered at different concentrations: Compound 16: A 20-μL sample of the C57 mouse plasma collected at each time point after administration was taken, and 200 μL of acetonitrile containing 100 ng/mL camptothecin (internal standard) was added to each sample to precipitate protein. The mixture was vortexed for 5 min and centrifuged at 3700 rpm for 10 min. 50 μL of the supernatant was taken, and 100 μL of water was added. The mixture was vortexed for 5 min, and 1 μL of the mixture was taken for LC/MS/MS analysis. Compound 32: A 20-μL sample of the C57 mouse plasma collected at each time point after administration was taken, and 200 μL of acetonitrile containing verapamil (internal standard, 20 ng/mL) was added to each sample to precipitate protein. The mixture was vortexed for 5 min and centrifuged at 3700 rpm for 10 min. 90 μL of the supernatant was taken, and 90 μL of water was added. The mixture was vortexed for 5 min, and 0.1 μL of the mixture was taken for LC/MS/MS analysis.

rat incision pain model = assay: Analgesic efficacy in rat incision pain model (mechanical pain threshold); type: in vivo, SD rats; settings: i.g./one dose; for Pain threshold: rat incision pain model, 5 h after administration; for Percent increase in threshold: vs. vehicle control
Procedure: To evaluate the analgesic efficacy of the compounds of the present disclosure in inhibiting pain in rats of a rat incision pain model.
The compounds of Example 16 and Example 32.
Test animals: SD rats, purchased from Beijing Vital River Laboratory Animal Technology Co., Ltd. (license number: SCXK (Zhejiang) 2019-0001), weighing about 180 g on purchase.
Housing conditions: 5 animals/cage, a 12/12-hour light/dark cycle, a constant temperature of 23±1° C. with humidity at 50 to 60%, ad libitum access to food and water.
After acclimatization, the SD rats were grouped as follows:
Nine SD rats, weighing 170-190 g, were selected for this study. The mechanical pain threshold was measured using an electronic aesthesiometer. Then an incision pain surgery was performed. During the surgery, after the rats were anesthetized with Zoletil (Zoletil-50, 250 mg, diluted with normal saline to 50 mL after being dissolved, injected at a dose of 2 mL per 200 g of body weight), a 1 cm long incision was made in the middle of the plantar surface of the left hind paw using a No. 10 scalpel blade, cutting through the skin and fascia, and the incision was closed using 3-0 sterile silk sutures. The injured area was disinfected with penicillin, and the animals were returned to their original place to recover overnight. After the overnight recovery, oral gavage administration was performed. Five hours after administration (about 24 h after surgery), the mechanical pain threshold was measured using an electronic aesthesiometer.
Data were recorded using Excel statistical software: The averages were calculated using avg; the SD values were calculated using STDEV; the SEM values were calculated using STDEV/SQRT (the number of animals per group). Plotting was performed using GraphPad Prism software. Statistical analysis of the data was performed using one-way ANOVA and t-test.
Percent increase in threshold (%)=[(Gt−G0)/G0]×100(%), where Gt is the plantar pain threshold of the administration group, and G0 is the plantar pain threshold of the vehicle group.

SMILES: CO/N=C(\N)c1cc(NC(=O)[C@@H]2O[C@@](C)(C(F)(F)F)[C@@H](C)[C@H]2c2ccc(F)c(F)c2OC)ccn1 [Example 16]
- Vd ([1]; iv, 1.0 mg/kg): 9.97 L/kg
- AUC(0-t) ([1]; iv, 1.0 mg/kg): 718 ng·h/mL
- half-life ([1]; iv, 1.0 mg/kg): 8.1 h
- Cmax ([1]; iv, 1.0 mg/kg): 377 ng/mL
- bioavailability [1]: 87.2%
- AUC(0-t) ([1]; po, i.g., 2.0 mg/kg): 1250 ng·h/mL
- CL/F ([1]; po, i.g., 2.0 mg/kg): 24.4 mL/min/kg
- half-life ([1]; po, i.g., 2.0 mg/kg): 7.5 h
- Cmax ([1]; po, i.g., 2.0 mg/kg): 266 ng/mL
- Clearance rate CL/F ([1]; 1.0 mg/kg): 21.1 mL/min/kg
- Pain threshold (rat incision pain model; 50 mpk): 10.8 gf and 10.8 ± 0.5 gf
- Pain threshold (rat incision pain model; 100 mpk): 14.9 gf and 14.9 ± 1.5 gf
- Pain threshold (rat incision pain model; 200 mpk): 22.3 gf and 22.3 ± 1.8 gf
- Percent increase in threshold (rat incision pain model; 50 mpk): 7%
- Percent increase in threshold (rat incision pain model; 100 mpk): 49%
- Percent increase in threshold (rat incision pain model; 200 mpk): 122%

SMILES: COc1c([C@H]2[C@H](C(=O)Nc3ccnc(/C(N)=N/O)c3)O[C@@](C)(C(F)(F)F)[C@H]2C)ccc(F)c1F [Example 32]
- Vd ([1]; iv, 1.0 mg/kg): 3.93 L/kg
- AUC(0-t) ([1]; iv, 1.0 mg/kg): 947 ng·h/mL
- half-life ([1]; iv, 1.0 mg/kg): 3.3 h
- Cmax ([1]; iv, 1.0 mg/kg): 616 ng/mL
- bioavailability [1]: 82.6%
- AUC(0-t) ([1]; po, i.g., 2.0 mg/kg): 1560 ng·h/mL
- CL/F ([1]; po, i.g., 2.0 mg/kg): 21.2 mL/min/kg
- half-life ([1]; po, i.g., 2.0 mg/kg): 3.2 h
- Cmax ([1]; po, i.g., 2.0 mg/kg): 260 ng/mL
- Clearance rate CL/F ([1]; 1.0 mg/kg): 16.1 mL/min/kg
- Pain threshold (rat incision pain model; 30 mpk): 12.0 gf and 12.0 ± 0.9 gf
- Pain threshold (rat incision pain model; 100 mpk): 22.3 gf and 22.3 ± 1.3 gf
- Pain threshold (rat incision pain model; 200 mpk): 22.4 gf and 22.4 ± 2.5 gf
- Percent increase in threshold (rat incision pain model; 30 mpk): 15%
- Percent increase in threshold (rat incision pain model; 100 mpk): 114%
- Percent increase in threshold (rat incision pain model; 200 mpk): 114%
